# Results published in patent publication US5382670A, “Platelet activating factor antagonists” (priority 1993, dated 1995).
# pKi: −log10 of the molar value. Structures can show the parent of a compound that is named as a salt.
# Biological target: PAF receptor (Oryctolagus cuniculus, UniProt G1TEI7)
# Assay: PAF receptor binding assay: inhibition of specific [3H]C18-PAF binding to rabbit platelet membranes
# Conditions: 0.6 nM [3H]C18-PAF, 60 min, 22-23 °C, Ki from IC50 (Cheng and Prusoff), read-out: Ki (PAF Receptor Binding Activity)
# Method: The ability of representative compounds of the present invention to inhibit PAF activity was determined in an in vitro test using the following method.
# Citrated whole rabbit blood was obtained from Pel-Freez (Rogers, AR). Rabbit platelets were prepared by centrifugation and washing. The platelets were lysed by freeze-thawing and sonication; platelet membranes were prepared by centrifugation and washing. Final membrane preparations were stored frozen in 10 mM Tris/5 mM MgCl2 /2 mM EDTA (TME buffer, pH 7.0) with 0.25M sucrose added for membrane stabilization.
# The standard PAF receptor binding assay contained 10 μg platelet membrane protein, 0.6 nM [^3 H]C18 -PAF (from Amersham or New England Nuclear; specific activity 120-180 Ci/mmol), with and without test compound, in "binding buffer" consisting of TME with 0.25% bovine serum albumin added (Sigma, RIA grade). The final volume of the assay was 100 μl. The assay was conducted in Millititre-GV™ (Millipore Corp.) filtration plates; incubation time was for 60 minutes at room temperature (22°-23° C.). "Specific binding" was operationally defined as the arithmetic difference between "total binding" of 0.6 nM [^3 H]C18 -PAF (in the abasence of added PAF) and "nonspecific binding" (in the presence of 1 μM PAF). After the prescribed incubation, platelet membranes were filtered under vacuum, and washed with 1 milliliter of "binding buffer". The filters were dried and removed. The bound radioactivity was quantitated with a Berthold TLC-Linear Analyzer model LB2842.
# Dose-response curves of inhibition of specific [^3 H]C18 -PAF binding by test compounds were conducted in triplicate, with at least four doses covering the active range. Experiments were repeated at least once. IC50 values (concentration producing 50% inhibition) were determined by point-to-point evaluation. Ki values of inhibitory binding constants were calculated according to the method of Cheng and Prusoff [Biochem. Pharmacol. 22 (1973) 3099-3108] whereby [formula]
# The values of Ki for representative compounds of the present invention appear in Table 1.
# Sequence of PAF receptor (G1TEI7 1-342): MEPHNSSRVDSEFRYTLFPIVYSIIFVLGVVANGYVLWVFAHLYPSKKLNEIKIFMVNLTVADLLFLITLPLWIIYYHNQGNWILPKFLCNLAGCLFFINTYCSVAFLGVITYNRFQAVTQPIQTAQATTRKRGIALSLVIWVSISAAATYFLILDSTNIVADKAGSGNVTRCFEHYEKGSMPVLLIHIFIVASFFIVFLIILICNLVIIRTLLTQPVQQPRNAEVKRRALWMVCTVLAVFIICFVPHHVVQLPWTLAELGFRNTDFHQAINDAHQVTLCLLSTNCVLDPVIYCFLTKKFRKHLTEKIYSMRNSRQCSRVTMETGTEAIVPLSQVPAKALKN
row,Structure (SMILES),pKi
1,"O=C(c1cn(C(=O)N2CCOCC2)c2cc(OCc3ccccc3)ccc12)C1CSC(c2cccnc2)N1 (stereo not shown) [Example 72, 1-(4-morpholinocarbonyl)-3-[2-(3-pyridinyl)thiazolid-4-oyl]-6-phenylmethoxyindole oxalate]",8.00
2,"CCS(=O)(=O)n1cc(C(=O)C2CSC(c3cccnc3)N2)c2ccc(OCc3ccccc3)cc21 (stereo not shown) [Example 73, 1-ethylsulfonyl-3-[2-(3-pyridinyl)thiazolid-4-oyl]-6-phenylmethoxyindole]",8.10
3,"O=C(c1c[nH]c2cc(OCc3ccc(F)cc3)ccc12)C1CSC(c2cccnc2)N1 (stereo not shown) [Example 74, 3-[2-(3-pyridinyl)thiazolid-4-oyl]-6-(4-fluorophenylmethoxy)indole]",8.52
4,"CN(C)C(=O)n1cc(C(=O)C2CSC(c3cccnc3)N2)c2ccc(OCc3ccc(F)cc3)cc21 (stereo not shown) [Example 75, 1-dimethylcarbamoyl-3-[2-(3-pyridinyl)thiazolid-4-oyl]-6-(4-fluorophenylmethoxy)indole]",8.70
5,O=C(c1c[nH]c2cc(OCc3cccnc3)ccc12)C1CSC(c2cccnc2)N1 (stereo not shown) [Example 76],7.52
6,"O=C(c1c[nH]c2cc(C#Cc3ccccc3)ccc12)C1CSC(c2cccnc2)N1 (stereo not shown) [Example 77, 3-[2-(3-pyridinyl)thiazolid-4-oyl]-6-phenylethynylindole]",8.05
7,CN(C)C(=O)n1cc(C(=O)C2CSC(c3cccnc3)N2)c2ccc(C#Cc3ccccc3)cc21 (stereo not shown) [Example 78],8.70
8,"Cc1[nH]c2cc(OCc3ccccc3)ccc2c1C(=O)C1CSC(c2cccnc2)N1 (stereo not shown) [Example 79, 2-methyl-3-[2-(3-pyridinyl)thiazolid-4-oyl]-6-phenylmethoxyindole]",7.80
9,"Cc1ccc2c(C(=O)C3CSC(c4cccnc4)N3)cn(C(=O)OC(C)(C)C)c2c1 (stereo not shown) [Example 81, 1-tert-butoxycarbonyl-3-[2-(3-pyridinyl)thiazolid-4-oyl]-6-methylindole oxalate]",8.70
10,"COc1ccc2c(C(=O)C3CSC(c4cccnc4)N3)cn(C(=O)OC(C)(C)C)c2c1 (stereo not shown) [Example 84, 1-tert-butoxycarbonyl-3-[2-(3-pyridinyl)thiazolid-4-oyl]-6-methoxyindole oxalate]",8.05
11,"COc1ccc2c(C(=O)C3CSC(c4cccnc4)N3)cn(C(=O)N(C)C)c2c1 (stereo not shown) [Example 85, 1-dimethylcarbamoyl-3-[2-(3-pyridinyl)thiazolid-4-oyl]-6-methoxyindole]",8.40
12,"O=C(c1c[nH]c2cc(-c3ccccc3)ccc12)C1CSC(c2cccnc2)N1 (stereo not shown) [Example 86, 3-[2-(3-pyridinyl)-thiazolid-4-oyl]-6-phenylindole]",7.82
13,"CN(C)C(=O)n1cc(C(=O)C2CSC(c3cccnc3)N2)c2ccc(-c3ccccc3)cc21 (stereo not shown) [Example 87, 1-dimethylcarbamoyl-3-[2-(3-pyridinyl)thiazolid-4-oyl]-6-phenylindole]",8.40
14,"CN(C)C(=O)n1cc(C(=O)C2CSC(c3cccnc3)N2)c2ccc(Cl)cc21 (stereo not shown) [Example 89, 1-dimethylcarbamoyl-3-[2-(3-pyridinyl)thiazolid-4-oyl]-6-chloroindole]",9.00
15,"O=CN1C(C(=O)c2c[nH]c3ccccc23)CSC1c1cccnc1 (stereo not shown) [Example 90, 3-[2-(3-pyridinyl)-3-formylthiazolid-4-oyl]indole]",6.57
16,"CN(C)C(=O)n1cc(C(=O)C2CSC(c3cccnc3)N2C=O)c2ccccc21 (stereo not shown) [Example 91, 1-dimethylcarbamoyl-3-[2-(3-pyridinyl)-3-formylthiazolid-4-oyl]indole]",7.43
17,"O=CN1C(C(=O)c2cn(C(=O)N3CCOCC3)c3ccccc23)CSC1c1cccnc1 (stereo not shown) [Example 92, 1-(4-morpholinocarbonyl)-3-[2-(3-pyridinyl)-3-formylthiazolid-4-oyl]indole]",6.82
18,"CN(C)C(=O)n1cc(C(=O)C2CSC(c3cccnc3)N2C=O)c2ccc(OCc3ccccc3)cc21 (stereo not shown) [Example 93, 1-dimethylcarbamoyl-3-[2-(3-pyridinyl)-3-formylthiazolid-4-oyl]-6-phenylmethoxyindole]",7.46
19,"Cc1ccc2c(C(=O)C3CSC(c4cccnc4)N3C=O)cn(C(=O)N(C)C)c2c1 (stereo not shown) [Example 94, 1-dimethylcarbamoyl-3-[2-(3-pyridinyl)-3-formylthiazolid-4-oyl]-6-methylindole]",7.48
20,"CN(C)C(=O)n1cc(C(=O)C2C[S+]([O-])C(c3cccnc3)N2C=O)c2ccccc21 (stereo not shown) [Example 95, 1-dimethylcarbamoyl-3-[1-oxide,2-(3,pyridinyl)-3-formylthiazolid-4-oyl]indole]",5.48
21,"CN(C)C(=O)n1cc(C(=O)[C@@H]2CSC(c3cccnc3)N2C=O)c2ccccc21 (stereo partly drawn) [Example 96, trans-1-dimethylcarbamoyl-3-[2-(3-pyridinyl)-3-formylthiazolid-4-oyl]indole]",6.82
22,"CC(=O)N1C(C(=O)c2c[nH]c3ccccc23)CSC1c1cccnc1 (stereo not shown) [Example 98, 3-[2-(3-pyridinyl)-3-acetylthiazolid-4-oyl]indole]",4.74
23,"CC(=O)N1C(C(=O)c2cn(C(=O)N(C)C)c3cc(OCc4ccccc4)ccc23)CSC1c1cccnc1 (stereo not shown) [Example 99, 1-dimethylcarbamoyl-3-[2-(3-pyridinyl)-3-acetylthiazolid-4-oyl]-6-phenylmethoxyindole]",5.30
24,"CC(=O)N1C(C(=O)c2cn(C(=O)N(C)C)c3ccccc23)CSC1c1cccnc1 (stereo not shown) [Example 100, 1-dimethylcarbamoyl-3-[2-(3-pyridinyl)-3-acetylthiazolid-4-oyl]indole]",5.28
25,"CC(=O)N1C(C(=O)c2cn(C(=O)N(C)C)c3cc(OCc4ccccc4)ccc23)CSC1c1cccnc1 (stereo not shown) [Example 101, oxalate]",5.66
26,"CN(C)C(=O)n1cc(C(=O)C2CSC(c3cccnc3)N2C(N)=O)c2ccccc21 (stereo not shown) [Example 110, 1-dimethylcarbamoyl-3-[2-(3-pyridinyl)-3-carbamoylthiazolid-4-oyl]indole]",5.85
27,"CN(C)C(=O)n1cc(C(=O)C2CSC(c3cccnc3)N2C(N)=O)c2ccc(OCc3ccccc3)cc21 (stereo not shown) [Example 111, 1-dimethylcarbamoyl-3-[2-(3-pyridinyl)-3-carbamoylthiazolid-4-oyl]-6-phenylmethoxyindole]",6.15
28,"CN(C)C(=O)n1cc(C(=O)C2CSC(c3cccnc3)N2S(C)(=O)=O)c2ccccc21 (stereo not shown) [Example 112, 1-dimethylcarbamoyl-3-[2-(3-pyridinyl)-3-methylsulfonylthiazolid-4-oyl]indole]",5.32
29,"CN(C)C(=O)n1cc(C(=O)C2COC(c3cccnc3)N2C=O)c2ccccc21 (stereo not shown) [Example 113, 1-dimethylcarbamoyl-3-[2-(3-pyridinyl)-3,formyloxazolid-4-oyl]indole]",5.89
30,"CC(C)(C)OC(=O)n1cc(C(O)C2CSC(c3cccnc3)N2)c2ccccc21 (stereo not shown) [Example 114, [2-(3-pyridinyl)thiazolid-4-yl](1-tert-butoxycarbonylindol-3-yl)methanol]",7.37

# Same assay, conditions: Ki (PAF Receptor Binding Activity), 0.6 nM [3H]C18-PAF, 60 min, 22-23 °C, Ki from IC50 (Cheng and Prusoff)
row,Structure (SMILES),pKi
1,"Cc1ccc2c(C(=O)C3CSC(c4cccnc4)N3)c[nH]c2c1 (stereo not shown) [Example 80, 3-[2-(3-pyridinyl)thiazolid-4-oyl]-6-methylindole]",8.52
2,"COc1ccc2c(C(=O)C3CSC(c4cccnc4)N3)c[nH]c2c1 (stereo not shown) [Example 82, 3-[2-(3-pyridinyl)thiazolid-4-oyl]-6-methoxyindole]",8.05
3,"COc1ccc2c(C(=O)C3CSC(c4cccnc4)N3)c[nH]c2c1 (stereo not shown) [Example 83, 3-[2-(3-pyridinyl)thiazolid-4-oyl]-6-methoxyindole oxalate]",7.80
4,"O=C(c1c[nH]c2cc(O)ccc12)C1CSC(c2cccnc2)N1 (stereo not shown) [Example 88, 3-[2-(3-pyridinyl)thiazolid-4-oyl]-6-hydroxyindole]",6.82
5,"O=C(c1cc2ccccc2[nH]1)C1CSC(c2cccnc2)N1 (stereo not shown) [Example 115, 2-[2-(3-pyridinyl)thiazolid-4-oyl]indole]",6.81
6,"CN(C)C(=O)Cn1cc(C(=O)C2CSC(c3cccnc3)N2)c2ccccc21 (stereo not shown) [Example 116, 1-(N,N-dimethylcarbamoylmethyl)-3-[2-(3-pyridinyl)thiazolid-4-oyl]indole]",8.15
7,"CNC(=O)Cn1cc(C(=O)C2CSC(c3cccnc3)N2)c2ccccc21 (stereo not shown) [Example 117, 1-(N-methylcarbamoylmethyl)-3-[2-(3-pyridinyl)thiazolid-4-oyl]indole]",8.52
8,"COC(=O)CCn1cc(C(=O)C2CSC(c3cccnc3)N2)c2ccccc21 (stereo not shown) [Example 118, 1-carbomethoxyethyl-3-[2-(3-pyridinyl)thiazolid-4-oyl]indole]",8.30
9,"O=C(O)CCn1cc(C(=O)C2CSC(c3cccnc3)N2)c2ccccc21 (stereo not shown) [Example 119, 1-carboxyethyl-3-[2-(3-pyridinyl)thiazolid-4-oyl]indole]",7.70
10,"O=C(O)Cn1cc(C(=O)C2CSC(c3cccnc3)N2)c2ccccc21 (stereo not shown) [Example 120, 1-carboxymethyl-3-[2-(3-pyridinyl)thiazolid-4-oyl]indole]",7.72
